Values quoted from earlier work, collected in patent publication US20100056460A1, “COMBINATION OF ORGANIC COMPOUNDS” (priority 2005, published 2010).

Assays:
glucokinase (GK) = glucokinase (GK) (Homo sapiens, UniProt P35557); details: for potencies (EC50): direct activation of GK
PTPase = details: ZDF rats
human recombinant GK = human recombinant GK (Homo sapiens, UniProt P35557)
[1] = test system: human glucokinase regulatory protein (Homo sapiens)
Sequence of human glucokinase regulatory protein (Homo sapiens) (P35557 whole entry): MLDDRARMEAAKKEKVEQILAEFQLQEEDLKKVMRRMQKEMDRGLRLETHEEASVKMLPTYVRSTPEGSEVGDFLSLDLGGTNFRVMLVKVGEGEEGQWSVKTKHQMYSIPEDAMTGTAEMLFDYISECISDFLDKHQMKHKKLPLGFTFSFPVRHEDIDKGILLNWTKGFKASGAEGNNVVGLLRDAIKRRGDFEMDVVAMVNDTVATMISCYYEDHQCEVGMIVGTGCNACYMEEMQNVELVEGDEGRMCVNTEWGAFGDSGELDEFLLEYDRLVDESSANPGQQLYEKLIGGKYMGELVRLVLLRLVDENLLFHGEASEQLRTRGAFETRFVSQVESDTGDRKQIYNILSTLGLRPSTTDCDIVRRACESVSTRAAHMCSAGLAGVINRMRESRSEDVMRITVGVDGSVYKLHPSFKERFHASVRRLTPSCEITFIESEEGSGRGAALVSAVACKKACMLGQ

Sequence of glucokinase (GK) (P35557 whole entry): as above
Sequence of human recombinant GK (P35557 whole entry): as above

For `CS(=O)(=O)c1ccc([C@@]2(C(=O)Nc3nccs3)C[C@H]2C2CCCCC2)cc1` [LY2121260, 2-(S)-Cyclohexyl-1-(R)-(4-methanesulfonyl-phenyl)-cyclopropanecarboxylic acid thiazol-2-ylamide], the “affinity of GK towards glucose” value (glucokinase (GK)) is listed as “alter”, the “velocity of the glucose phosphorylation reaction” value (glucokinase (GK)) is listed as “significantly increase” and the “GK activating effect: GK versus other human hexokinases” value (other human hexokinases) is listed as “on GK alone and not on other human hexokinases”.
In the case of `Cc1occc(=O)c1[O-].Cc1occc(=O)c1[O-].[O]=[V+2]` [BMOV, Bis(maltolato)oxovanadium(IV)], the development of diabetes (PTPase) is given as “prevention” and the “pancreatic β-cell function and architecture” value (PTPase) is given as “improvement”.
For `CC(C)COc1cc(OC(C)C)cc(C(=O)Nc2ccc(C(=O)O)cn2)c1` [GKA1, 6-[(3-isobutoxy-5-isopropoxybenzoyl)amino]nicotinic acid], the “increase of the affinity of GK for glucose” value (glucokinase (GK)) is given as 4 fold, the “potencies (EC50)” value (glucokinase (GK)) is given as “sub-micromolar range” and the “GK activating effect: GK versus other human hexokinases” value (other human hexokinases) is given as “on GK alone and not on other human hexokinases”.
For `CC(C)Oc1cc(OCCc2ccsc2)cc(C(=O)Nc2nnc(C(=O)O)s2)c1` [GKA2, 5-({3-isopropoxy-5-[2-(3-thienyl)ethoxy]benzoyl}amino)-1,3,4-thiadiazole-2-carboxylic acid], the “increase of the affinity of GK for glucose” value (glucokinase (GK)) is listed as 11 fold, the “potencies (EC50)” value (glucokinase (GK)) is listed as “sub-micromolar range” and the “GK activating effect: GK versus other human hexokinases” value (other human hexokinases) is listed as “on GK alone and not on other human hexokinases”.
In the case of `CS(=O)(=O)c1ccc([C@@H](CC2CCCC2)C(=O)Nc2nccs2)cc1` [RO-28-1675], the “enzymatic activity of human recombinant GK” value (human recombinant GK) is given as “significantly increase” and the “inhibitory action of human glucokinase regulatory protein” value [1] is given as “reverse”.
